According to patent publication US9107410B2, “Pesticidal compositions and processes related thereto” (Dow AgroSciences LLC, priority 2011, dated 2015):
Like-named read-outs stand apart in the source and are kept apart here.

Columns and labels:
Assay type in all cases: in vivo
[1] = system: Green Peach Aphid (GPA) (Myzus persicae); experiment: Bioassay on green peach aphid (GPA), foliar spray on cabbage seedlings; details: 72 h, read-out: % Mortality GPA 200 ppm
Description: Certain molecules disclosed in this document were tested against GPA using procedures described in the following example. In the reporting of the results, the “GPA Rating Table” was used (See Table Section).
Cabbage seedlings grown in 3-inch pots, with 2-3 small (3-5 cm) true leaves, were used as test substrate. The seedlings were infested with 20-50 GPA (wingless adult and nymph stages) one day prior to chemical application. Four pots with individual seedlings were used for each treatment. Test compounds (2 mg) were dissolved in 2 mL of acetone/methanol (1:1) solvent, forming stock solutions of 1000 ppm test compound. The stock solutions were diluted 5× with 0.025% Tween 20 in H2O to obtain the solution at 200 ppm test compound. A hand-held aspirator-type sprayer was used for spraying a solution to both sides of […] leaves until runoff. Reference plants (solvent check) were sprayed with the diluent only containing 20% by volume of acetone/methanol (1:1) solvent. Treated plants were held in a holding room for three days at approximately 25° C. and ambient relative humidity (RH) prior to grading. Evaluation was conducted by counting the number of live aphids per plant under a microscope. Percent Control was measured by using Abbott's correction formula (W. S. Abbott, “A Method of Computing the Effectiveness of an Insecticide” J. Econ. Entomol. 18 (1925), pp. 265-267) as follows. Corrected % Control=100*(X−Y)/X • where • X=No. of live aphids on solvent check plants and • Y=No. of live aphids on treated plants

[2] = system: Corn Earworm (CEW) (Helicoverpa zea); experiment: Bioassay on corn earworm (CEW), 128-well diet tray assay; details: 168 h, read-out: % Mortality CEW 50 μg/cm^2
Description: (§1) Certain molecules disclosed in this document were tested against BAW and CEW using procedures described in the following examples. In the reporting of the results, the “BAW & CEW Rating Table” was used (See Table Section).
Bioassays on CEW (Helicoverpa zea)
Bioassays on CEW were conducted using a 128-well diet tray assay. One to five second instar CEW larvae were placed in each well (3 mL) of the diet tray that had been previously filled with 1 mL of artificial diet to which 50 μg/cm^2 of the test compound (dissolved in 50 μL of 90:10 acetone-water mixture) had been applied (to each of eight wells) and then allowed to dry. Trays were covered with a clear self-adhesive cover, and held at 25° C., 14:10 light-dark for five to seven days. Percent mortality was recorded for the larvae in each well; activity in the eight wells was then averaged. The results are indicated in the table entitled “Table: Bio Results” (See Table Section).

[3] = system: Beet Armyworm (BAW) (Spodoptera exigua); experiment: Bioassay on beet armyworm (BAW), 128-well diet tray assay; details: 168 h, read-out: % Mortality BAW 50 μg/cm^2
Description: as §1
Bioassays on BAW (Spodoptera exigua)
Bioassays on BAW were conducted using a 128-well diet tray assay. One to five second instar BAW larvae were placed in each well (3 mL) of the diet tray that had been previously filled with 1 mL of artificial diet to which 50 μg/cm^2 of the test compound (dissolved in 50 μL of 90:10 acetone-water mixture) had been applied (to each of eight wells) and then allowed to dry. Trays were covered with a clear self-adhesive cover, and held at 25° C., 14:10 light-dark for five to seven days. Percent mortality was recorded for the larvae in each well; activity in the eight wells was then averaged. The results are indicated in the table entitled “Table: Bio Results” (See Table Section).

[4] = 200 ppm foliar spray on cabbage seedlings, graded after three days, Abbott corrected % control
[5] = 50 μg/cm^2 on artificial diet, second instar larvae, 25° C., five to seven days, average of eight wells

SMILES	mortality at 200 ppm [1, 4] [%]	mortality at 50 µg/cm2 [2, 5] [%]	mortality at 50 µg/cm2 [3, 5] [%]	mortality at 200 ppm ([1]; foliar) [%]	mortality at 50 µg/cm2 [2] [%]	mortality at 50 µg/cm2 [3] [%]
FC(F)(F)Oc1ccc(-n2cnc(-c3ccc(C4CC4NC(=S)Nc4ccccc4)cc3)n2)cc1 (centres unmarked) [Compound 1, 1-phenyl-3-(2-{4-[1-(4-trifluoromethoxyphenyl)-1H-[1,2,4]triazol-3-yl]phenyl}cyclopropyl)thiourea]	0	50 to 100	50 to 100	–	–	–
FC(F)(F)Oc1ccc(-n2cnc(-c3ccc(C4CC4NC(=S)Nc4c(Cl)cccc4Cl)cc3)n2)cc1 (centres unmarked) [Compound 2, 1-(2,6-Dichlorophenyl)-3-(2-{4-[1-(4-trifluoromethoxyphenyl)-1H-[1,2,4]triazol-3-yl]phenyl}cyclopropyl)thiourea]	0 to 80	50 to 100	50 to 100	–	–	–
COc1ccc(NC(=S)NC2CC2c2ccc(-c3ncn(-c4ccc(OC(F)(F)F)cc4)n3)cc2)c(C)c1 (centres unmarked) [Compound 3, 1-(4-Methoxy-2-methylphenyl)-3-(2-{4-[1-(4-trifluoromethoxyphenyl)-1H-[1,2,4]triazol-3-yl]phenyl}cyclopropyl)thiourea]	0 to 80	50 to 100	50 to 100	–	–	–
Cc1cc(Cl)ccc1NC(=S)NC1CC1c1ccc(-c2ncn(-c3ccc(OC(F)(F)F)cc3)n2)cc1 (centres unmarked) [Compound 4, 1-(4-Chloro-2-methylphenyl)-3-(2-{4-[1-(4-trifluoromethoxyphenyl)-1H-[1,2,4]triazol-3-yl]phenyl}cyclopropyl)thiourea]	0	50 to 100	50 to 100	–	–	–
FC(F)(F)Oc1ccc(-n2cnc(-c3ccc(C4CC4NC(=S)Nc4ccccc4Cl)cc3)n2)cc1 (centres unmarked) [Compound 5, 1-(2-Chlorophenyl)-3-(2-{4-[1-(4-trifluoromethoxyphenyl)-1H-[1,2,4]triazol-3-yl]phenyl}cyclopropyl)thiourea]	0	50 to 100	50 to 100	–	–	–
CCc1cccc(CC)c1NC(=S)NC1CC1c1ccc(-c2ncn(-c3ccc(OC(F)(F)F)cc3)n2)cc1 (centres unmarked) [Compound 6, 1-(2,6-Diethylphenyl)-3-(2-{4-[1-(4-trifluoromethoxyphenyl)-1H-[1,2,4]triazol-3-yl]phenyl}cyclopropyl)thiourea]	0 to 80	50 to 100	50 to 100	–	–	–
CN(C)c1ccc(NC(=S)NC2CC2c2ccc(-c3ncn(-c4ccc(OC(F)(F)F)cc4)n3)cc2)cc1 (centres unmarked) [Compound 7, 1-(4-Dimethylaminophenyl)-3-(2-{4-[1-(4-trifluoromethoxyphenyl)-1H-[1,2,4]triazol-3-yl]phenyl}cyclopropyl)thiourea]	0	50 to 100	50 to 100	–	–	–
FC(F)(F)Oc1ccc(-n2cnc(-c3ccc(C4CC4NC(=S)Nc4ccc(C(F)(F)F)cc4)cc3)n2)cc1 (centres unmarked) [Compound 8, 1-(2-{4-[1-(4-Trifluoromethoxyphenyl)-1H-[1,2,4]triazol-3-yl]phenyl}-cyclopropyl)-3-(4-trifluoromethylphenyl)thiourea]	0 to 80	50 to 100	50 to 100	–	–	–
Cc1cc(C)c(NC(=S)NC2CC2c2ccc(-c3ncn(-c4ccc(OC(F)(F)F)cc4)n3)cc2)c(C)c1 (centres unmarked) [Compound 9, 1-(2-{4-[1-(4-Trifluoromethoxyphenyl)-1H-[1,2,4]triazol-3-yl]phenyl}-cyclopropyl)-3-(2,4,6-trimethylphenyl)thiourea]	0	50 to 100	50 to 100	–	–	–
COc1ccc(NC(=S)NC2CC2c2ccc(-c3ncn(-c4ccc(OC(F)(F)F)cc4)n3)cc2)c(OC)c1 (centres unmarked) [Compound 10, 1-(2,4-Dimethoxyphenyl)-3-(2-{4-[1-(4-trifluoromethoxyphenyl)-1H-[1,2,4]triazol-3-yl]phenyl}cyclopropyl)thiourea]	0 to 80	50 to 100	50 to 100	–	–	–
Cc1ccc(NC(=S)NC2CC2c2ccc(-c3ncn(-c4ccc(OC(F)(F)F)cc4)n3)cc2)c(C)c1 (centres unmarked) [Compound 11, 1-(2,4-Dimethylphenyl)-3-(2-(4-(1-(4-(trifluoromethoxy)phenyl)-1H-1,2,4-triazol-3-yl)phenyl)cyclopropyl)thiourea]	0 to 80	50 to 100	50 to 100	–	–	–
Cc1cccc(C)c1NC(=S)NC1CC1c1ccc(-c2ncn(-c3ccc(OC(F)(F)F)cc3)n2)cc1 (centres unmarked) [Compound 12, 1-(2,6-Dimethylphenyl)-3-(2-(4-(1-(4-(trifluoromethoxy)phenyl)-1H-1,2,4-triazol-3-yl)phenyl)cyclopropyl)thiourea]	0 to 80	50 to 100	50 to 100	–	–	–
COc1ccc(NC(=S)NC2CC2c2ccc(-c3ncn(-c4ccc(OC(F)(F)F)cc4)n3)cc2)c(C(C)C)c1 (centres unmarked) [Compound 13, 1-(2-Isopropyl-4-methoxyphenyl)-3-(2-(4-(1-(4-(trifluoromethoxy)phenyl)-1H-1,2,4-triazol-3-yl)phenyl)cyclopropyl)thiourea]	0	50 to 100	50 to 100	–	–	–
COc1cc(C)c(NC(=S)NC2CC2c2ccc(-c3ncn(-c4ccc(OC(F)(F)F)cc4)n3)cc2)c(C)n1 (centres unmarked) [Compound 14, 1-(6-Methoxy-2,4-dimethylpyridin-3-yl)-3-(2-(4-(1-(4-(trifluoromethoxy)-phenyl)-1H-1,2,4-triazol-3-yl)phenyl)cyclopropyl)thiourea]	0 to 80	50 to 100	50 to 100	–	–	–
Cc1cccc(C)c1/N=C(/NC1CC1c1ccc(-c2ncn(-c3ccc(OC(F)(F)F)cc3)n2)cc1)SCOC(=O)C(C)C (centres unmarked) [Compound 15, (Z)-(N′-(2,6-dimethylphenyl)-N-(2-(4-(1-(4-(trifluoromethoxy)phenyl)-1H-1,2,4-triazol-3-yl)phenyl)cyclopropyl)-carbamimidoylthio)methyl isobutyrate]	0 to 80	–	–	–	–	–
Cc1cc(C)c(/N=C(/NC2CC2c2ccc(-c3ncn(-c4ccc(OC(F)(F)F)cc4)n3)cc2)SCOC(=O)C(C)C)c(C)c1 (centres unmarked) [Compound 16, (Z)-(N′-Mesityl-N-(2-(4-(1-(4-(trifluoromethoxy)phenyl)-1H-1,2,4-triazol-3-yl)phenyl)cyclopropyl)carbamimidoylthio)methyl isobutyrate]	0	–	–	–	–	–
CC(C)(C)OC(=O)NC1CC1c1ccc(-c2ncn(-c3ccc(OC(F)(F)F)cc3)n2)cc1 (centres unmarked) [Compound 17, tert-Butyl 2-(4-(1-(4-(trifluoromethoxy)phenyl)-1H-1,2,4-triazol-3-yl)phenyl)-cyclopropylcarbamate]	0	50 to 100	50 to 100	–	–	–
COC(=O)NC1CC1c1ccc(-c2ncn(-c3ccc(OC(F)(F)F)cc3)n2)cc1 (centres unmarked) [Compound 18, Methyl 2-(4-(1-(4-(trifluoromethoxy)phenyl)-1H-1,2,4-triazol-3-yl)phenyl)cyclopropyl-carbamate]	–	–	–	0	0 to 50	0
CC(OC(=O)NC1CC1c1ccc(-c2ncn(-c3ccc(OC(F)(F)F)cc3)n2)cc1)c1ccccc1 (centres unmarked) [Compound 19, 1-Phenylethyl 2-(4-(1-(4-(trifluoromethoxy)phenyl)-1H-1,2,4-triazol-3-yl)phenyl)-cyclopropylcarbamate]	–	–	–	0 to 80	50 to 100	0
CC(OC(=O)NC1CC1c1ccc(-c2ncn(-c3ccc(OC(F)(F)F)cc3)n2)cc1)c1ccccn1 (centres unmarked) [Compound 20, 1-(Pyridin-2-yl)ethyl 2-(4-(1-(4-(trifluoromethoxy)phenyl)-1H-1,2,4-triazol-3-yl)phenyl)-cyclopropylcarbamate]	–	–	–	0 to 80	50 to 100	50 to 100
